Assay results taken from patent publication US20220096436A1, “COMBINATION PRODUCT FOR THE TREATMENT OF CANCER” (Debiopharm International S.A., priority 2019, published 2022).

Columns and labels:
B16F10 melanoma tumors = assay: Anti-tumor efficacy in subcutaneous B16F10 mouse melanoma syngeneic model; assay type: in vivo, C57BL/6 mice; conditions: for TGI: vs vehicle; for mean tumor volume: vehicle group 1529 mm^3
Description: C57BL/6 mice were s.c. injected with 2×10^5 B16F10 tumor cells (see, for example, Bobek et al., 2010. Anticancer Res. 30(12):4799-803) and treatments started at a mean group tumor size of 94 mm^3 (n=8/group). Debio 1143 at 100 and 200 mg/kg p.o. was given on 5 days/week in combination with 10 mg/kg i.p. anti-PD1 twice weekly and compared to treatment with vehicle plus isotype antibody. In addition, the 100 mg/kg dose given twice weekly in combination with anti-PD1 at 10 mg/kg i.p. twice weekly was tested.

TS/A breast cancer = assay: Therapeutic efficacy in TS/A breast cancer mouse syngeneic model; assay type: in vivo; conditions: Debio 1143 combined with an anti-CTLA4 antibody
Description: (§1) The therapeutic efficacy of Debio 1143 combined with an anti-CTLA4 antibody was tested in a TS/A breast cancer mouse syngeneic model. Further, the therapeutic efficacy of Debio 1143 combined with an IDO inhibitor (INCB024360) was tested in a CT-26 colorectal cancer mouse syngeneic model.

CT-26 colorectal cancer = assay: Therapeutic efficacy in CT-26 colorectal cancer mouse syngeneic model; assay type: in vivo; conditions: Debio 1143 combined with IDO inhibitor INCB024360
Description: as §1

[1] = nivolumab 3-10 mg/kg q2w monotherapy across tumor types, n=2,578; cited from earlier work
cancers = conditions: nivolumab monotherapy, 27 trials, n=5,551, cited from earlier work

Molecule `CN[C@@H](C)C(=O)N[C@H]1CN(C(=O)CC(C)C)CC[C@H]2CC[C@@H](C(=O)NC(c3ccccc3)c3ccccc3)N2C1=O` [Debio 1143, (5S,8S,10aR)-N-benzhydryl-5-((S)-2-(methylamino)propanamido)-3-(3-methylbutanoyl)-6-oxodecahydropyrrolo[1,2-a][1,5]diazocine-8-carboxamide] has a TGI (B16F10 melanoma tumors; day 19, Debio 1143 100 mg/kg p.o. QD1-5 combined with anti-PD-1 10 mg/kg, P=0.155) of 31%, a mean tumor volume (B16F10 melanoma tumors; day 19, Debio 1143 200 mg/kg p.o. 5 days/week in combination with 10 mg/kg anti-PD-1) of 594 mm^3 and a TGI (B16F10 melanoma tumors; day 19, Debio 1143 200 mg/kg p.o. 5 days/week in combination with 10 mg/kg anti-PD-1, P=0.005) of 61%. The mean tumor volume (B16F10 melanoma tumors; day 19, bi-weekly Debio 1143 100 mg/kg in combination with anti-PD-1 10 mg/kg) was 1396 mm^3, the TGI (B16F10 melanoma tumors; day 19, bi-weekly Debio 1143 100 mg/kg in combination with anti-PD-1 10 mg/kg, P=0.757) was 9% and the mean tumor volume (B16F10 melanoma tumors; day 19 from tumor inoculation, Debio 1143 100 mg/kg p.o. QD1-5 (5 days/week) combined with anti-PD-1 10 mg/kg i.p. twice weekly) was 1049 mm^3. The “combination therapy compared to the respective monotherapies” value (TS/A breast cancer) was “did not lead to a statistically significant improvement” and the “combination therapy compared to the respective monotherapies” value (CT-26 colorectal cancer) was “did not lead to a statistically significant improvement”.

In the case of “nivolumab: fully human immunoglobulin G4 (IgG4) monoclonal antibody, which binds to the PD-1 receptor and blocks its interaction with PD-L1 and PD-L2”, the “adverse reaction frequency: diarrhea” value [1] is given as 13%, the “adverse reaction frequency: fatigue” value [1] is given as 30% and the “adverse reaction frequency: pruritus” value [1] is given as 13%. For the same molecule, the “adverse reaction frequency: rash” value [1] was 17%, the “pooled objective response rate (ORR)” value (cancers; 95% CI 21-31) was 26% and the “6-month PFS rate” value (cancers; 95% CI 34-46) was 40%. The “1-year OS rate” value (cancers; 95% CI 43-62) was 52%.
